The results in this text go back to patent EP4592286A1, “MACROCYCLIC NITROGEN-CONTAINING CROWN ETHER COMPOUND AND USE THEREOF AS PROTEIN KINASE INHIBITOR” (Artivila Biopharma, priority 2022, dated 2024).

For assay [1], the system named is MV-4-11 cells. Nature of the assay: CDK9 cell activity test (Cell Titer-GLO cell growth inhibition), MV-4-11. The following applies: Homo sapiens, MV4-11, 72 hours. The format is cell-based. How it is done:
(§1) In these experiments, the cell line MV-4-11 was cultured in IMDM culture solution (containing 100 U/mL penicillin and 0.1 g/L streptomycin), the cell line HCC1187 was cultured in RPMI-1640 culture solution (containing 100 U/mL penicillin and 0.1 g/L streptomycin) containing 10% fetal bovine serum, the cell line Mia Paca-2 was cultured in DMEM (containing 100 U/mL penicillin and 0.1 g/L streptomycin) containing 10% fetal bovine serum and 2.5% horse serum, and the cell line A375 was cultured in RPMI-1640 culture solution (containing 100 U/mL penicillin and 0.1 g/L streptomycin) containing 10% fetal bovine serum. All cells were cultured in a saturated humidity incubator with 37 °C and 5% CO2.
When MV-4-11 cells, HCC-1187 cells, Mia Paca-2 cells and A375 cells grew to 80% -90% confleuncy, they were digested with trypsin, resuspended, counted and diluted to a certain cell density with complete medium, and inoculated into 96-well plate at 100 µL/well. With complete medium as background control, they were cultured overnight in a saturated humidity incubator with 37°C and 5% CO2. The compound was diluted to 200-fold of the final concentration using DMSO, 3 µL of DMSO storage solution of the above compound was added to 197 µL of complete medium, 50 µL of compound diluted in medium was added to cells in each well, and cultivated in a saturated humidity incubator with 37°C and 5% CO2 for 72 hours. After 72 hours, the culture plate was placed at room temperature for equilibrium, and 40 µl of Cell Titer-GLO® reagent was added to each well. The cells were lysed by mixing evenly for 2 minutes using a shaker, incubated at room temperature for 60 minutes to stabilize the chemiluminescence signal, and the chemiluminescence was read by PE EnVision microtiter plate reader. The cell growth inhibition rate Inh%=(DMSO well - compound treatment well)/(DMSO well - background well)×100 was calculated, and the cell growth IC50 value was obtained by fitting with GraphPad Prism 5 .
Background: In ATP-based viability assays light output follows the ATP content of the culture.

Assay [2] deals with HCC-1187 cells. Put plainly: CDK9 cell activity test (Cell Titer-GLO cell growth inhibition), HCC1187. The format is cell-based. The following applies: Homo sapiens, HCC1187, 72 h. How it is done: as §1
(§2) When MV-4-11 cells, HCC-1187 cells, Mia Paca-2 cells and A375 cells grew to 80% -90% confleuncy, they were digested with trypsin, resuspended, counted and diluted to a certain cell density with complete medium, and inoculated into 96-well plate at 100 µL/well. […] The cells were lysed by mixing evenly for 2 minutes using a shaker, incubated at room temperature for 60 minutes to stabilize the chemiluminescence signal, and the chemiluminescence was read by PE EnVision microtiter plate reader. The cell growth inhibition rate Inh%=(DMSO well - compound treatment well)/(DMSO well - background well)×100 was calculated, and the cell growth IC50 value was obtained by fitting with GraphPad Prism 5 .

Assay [3] concerns Mia Paca-2 cells. Nature of the assay: CDK9 cell activity test (Cell Titer-GLO cell growth inhibition), Mia Paca-2. To be noted: Homo sapiens, 72 hours. The class given is cell-based. The procedure: as §1, §2
The test system of assay [4] is A375 cells. Put plainly: CDK9 cell activity test (Cell Titer-GLO cell growth inhibition), A375. To be noted: Homo sapiens, A-375, 72 hours. The class given is cell-based. How it is done:
as §1, §2

The target of assay [5] is CDK9 (Homo sapiens, UniProt P50750). Put plainly: experiment of inhibiting kinase activity (Caliper mobility shift assay), CDK9. The format is biochemical. A digest of the protocol:
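Read-out was Caliper mobility shift of substrate conversion, normalized to no-inhibitor and buffer-only wells, with IC50 from a variable-slope log(inhibitor) curve. Enzyme was exposed to compound (10-point 3-fold series from 10 µM, or single 10/100 nM) 10 min at room temperature before ATP/substrate addition.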

The target in assay [6] is T1, wild-type LRRK2 (Homo sapiens, UniProt Q5S007).
T1 construct: pCMV-flag-WT LRRK2 (full-length); expressed in transfected cells; host or cells: HEK293T
Put plainly: detection of phosphorylated S935 in HEK293T overexpressing wild-type LRRK2. The class given is cell-based. The following applies: pS935, HEK293T overexpressing wild-type LRRK2, 1.5 hours. In outline:
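HEK293T cells transiently transfected with full-length FLAG-LRRK2 G2019S or wild-type LRRK2 for 20-24 h, then treated with compound (0.5% DMSO) for 1.5 h at 37°C. Cells PFA-fixed and immunostained for pS935 (1:1000) with DNA counterstain; fluorescence read on Odyssey imager.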

Sequence of CDK9 (P50750 whole entry): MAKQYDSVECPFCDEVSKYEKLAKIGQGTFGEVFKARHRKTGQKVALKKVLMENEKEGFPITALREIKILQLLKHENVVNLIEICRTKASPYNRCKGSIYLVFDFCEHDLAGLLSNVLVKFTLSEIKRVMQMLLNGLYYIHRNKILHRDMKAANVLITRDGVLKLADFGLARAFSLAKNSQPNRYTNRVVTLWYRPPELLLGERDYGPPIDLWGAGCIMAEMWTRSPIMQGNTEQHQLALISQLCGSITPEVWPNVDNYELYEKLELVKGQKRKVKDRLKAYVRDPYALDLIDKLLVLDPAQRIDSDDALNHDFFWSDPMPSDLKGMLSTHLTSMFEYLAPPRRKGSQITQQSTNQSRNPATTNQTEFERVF
Sequence of CDK9 (O60563 whole entry partner): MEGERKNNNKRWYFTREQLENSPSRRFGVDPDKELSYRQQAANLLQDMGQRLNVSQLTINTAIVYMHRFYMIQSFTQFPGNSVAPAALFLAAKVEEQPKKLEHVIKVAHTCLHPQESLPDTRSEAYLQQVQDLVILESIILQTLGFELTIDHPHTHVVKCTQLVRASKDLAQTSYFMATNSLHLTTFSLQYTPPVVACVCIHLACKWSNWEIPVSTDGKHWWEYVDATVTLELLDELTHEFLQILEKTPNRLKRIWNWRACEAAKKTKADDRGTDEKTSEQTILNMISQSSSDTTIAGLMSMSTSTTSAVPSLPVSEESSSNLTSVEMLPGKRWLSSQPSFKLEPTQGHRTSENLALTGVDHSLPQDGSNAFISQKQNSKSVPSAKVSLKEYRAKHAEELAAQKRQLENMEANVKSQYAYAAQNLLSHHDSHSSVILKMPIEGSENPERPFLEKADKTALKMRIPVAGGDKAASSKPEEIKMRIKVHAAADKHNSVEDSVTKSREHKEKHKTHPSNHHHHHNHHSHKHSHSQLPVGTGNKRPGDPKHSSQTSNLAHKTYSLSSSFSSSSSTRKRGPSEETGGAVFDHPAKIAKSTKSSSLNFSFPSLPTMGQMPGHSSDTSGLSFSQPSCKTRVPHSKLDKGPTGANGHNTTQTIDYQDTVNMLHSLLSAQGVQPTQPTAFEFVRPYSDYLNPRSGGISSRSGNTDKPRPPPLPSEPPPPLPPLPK
T1 sequence (Q5S007 whole entry): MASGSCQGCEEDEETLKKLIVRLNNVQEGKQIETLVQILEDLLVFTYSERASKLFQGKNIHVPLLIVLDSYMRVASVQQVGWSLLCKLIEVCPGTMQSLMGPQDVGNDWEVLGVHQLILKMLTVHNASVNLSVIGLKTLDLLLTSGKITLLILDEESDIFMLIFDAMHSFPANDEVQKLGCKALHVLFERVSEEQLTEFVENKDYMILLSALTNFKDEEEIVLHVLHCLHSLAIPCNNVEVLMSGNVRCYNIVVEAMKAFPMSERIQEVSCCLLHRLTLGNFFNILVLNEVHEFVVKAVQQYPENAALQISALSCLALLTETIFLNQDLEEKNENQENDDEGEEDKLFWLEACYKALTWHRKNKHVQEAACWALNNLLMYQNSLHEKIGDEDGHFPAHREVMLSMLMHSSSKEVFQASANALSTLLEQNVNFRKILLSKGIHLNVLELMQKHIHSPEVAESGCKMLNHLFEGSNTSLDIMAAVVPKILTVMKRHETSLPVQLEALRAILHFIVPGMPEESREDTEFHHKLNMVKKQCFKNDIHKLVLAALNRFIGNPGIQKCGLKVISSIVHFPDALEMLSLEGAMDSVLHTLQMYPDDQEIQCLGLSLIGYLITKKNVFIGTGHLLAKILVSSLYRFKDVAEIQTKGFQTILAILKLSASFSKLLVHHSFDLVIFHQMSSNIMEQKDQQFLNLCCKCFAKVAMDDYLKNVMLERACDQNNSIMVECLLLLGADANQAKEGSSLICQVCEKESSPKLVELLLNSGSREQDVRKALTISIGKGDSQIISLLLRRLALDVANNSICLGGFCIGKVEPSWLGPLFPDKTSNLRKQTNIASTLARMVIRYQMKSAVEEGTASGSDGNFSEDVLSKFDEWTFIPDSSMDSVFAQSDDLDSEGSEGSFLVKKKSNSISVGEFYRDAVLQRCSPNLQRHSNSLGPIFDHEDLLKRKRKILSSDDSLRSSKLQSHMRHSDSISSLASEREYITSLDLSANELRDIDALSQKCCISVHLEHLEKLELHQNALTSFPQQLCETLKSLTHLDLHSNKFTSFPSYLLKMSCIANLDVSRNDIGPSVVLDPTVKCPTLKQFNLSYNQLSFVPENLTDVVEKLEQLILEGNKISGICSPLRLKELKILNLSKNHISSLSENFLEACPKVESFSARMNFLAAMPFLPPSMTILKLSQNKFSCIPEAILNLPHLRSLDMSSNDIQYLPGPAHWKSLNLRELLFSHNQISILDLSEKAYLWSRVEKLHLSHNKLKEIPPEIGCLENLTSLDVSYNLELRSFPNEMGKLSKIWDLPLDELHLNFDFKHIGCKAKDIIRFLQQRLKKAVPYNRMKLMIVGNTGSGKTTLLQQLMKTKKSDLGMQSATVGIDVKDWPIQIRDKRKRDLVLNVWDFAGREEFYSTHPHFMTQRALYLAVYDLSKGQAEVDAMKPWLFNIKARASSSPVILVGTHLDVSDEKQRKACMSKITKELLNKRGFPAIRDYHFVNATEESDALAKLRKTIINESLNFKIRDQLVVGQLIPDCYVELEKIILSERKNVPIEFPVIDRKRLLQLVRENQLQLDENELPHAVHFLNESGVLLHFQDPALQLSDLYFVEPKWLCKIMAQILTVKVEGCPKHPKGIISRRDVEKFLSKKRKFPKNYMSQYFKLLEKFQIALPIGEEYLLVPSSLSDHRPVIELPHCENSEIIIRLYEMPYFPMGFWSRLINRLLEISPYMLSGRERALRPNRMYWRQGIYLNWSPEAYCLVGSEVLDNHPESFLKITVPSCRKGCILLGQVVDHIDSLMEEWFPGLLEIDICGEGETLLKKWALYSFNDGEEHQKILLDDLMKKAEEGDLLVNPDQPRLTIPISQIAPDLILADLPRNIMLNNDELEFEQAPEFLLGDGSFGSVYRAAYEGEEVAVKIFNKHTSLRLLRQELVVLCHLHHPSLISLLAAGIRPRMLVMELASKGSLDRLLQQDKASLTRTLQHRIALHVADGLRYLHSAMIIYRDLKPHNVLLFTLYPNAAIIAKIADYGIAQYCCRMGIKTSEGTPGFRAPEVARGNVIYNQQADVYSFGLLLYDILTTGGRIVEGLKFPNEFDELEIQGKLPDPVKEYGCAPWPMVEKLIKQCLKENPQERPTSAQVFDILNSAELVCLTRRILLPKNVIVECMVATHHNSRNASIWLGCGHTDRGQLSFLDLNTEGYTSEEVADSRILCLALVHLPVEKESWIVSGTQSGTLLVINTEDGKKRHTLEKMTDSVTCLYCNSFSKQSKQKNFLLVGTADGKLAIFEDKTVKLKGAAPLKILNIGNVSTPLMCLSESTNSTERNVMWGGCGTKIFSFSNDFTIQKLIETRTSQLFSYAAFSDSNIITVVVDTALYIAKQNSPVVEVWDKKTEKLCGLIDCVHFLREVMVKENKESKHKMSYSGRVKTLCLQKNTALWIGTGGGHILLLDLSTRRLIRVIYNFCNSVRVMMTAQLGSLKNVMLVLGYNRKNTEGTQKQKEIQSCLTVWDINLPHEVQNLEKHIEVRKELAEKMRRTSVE

In general, IC50 refers to the concentration that inhibits the measured activity by half. A word on the inhibition: it is the share of the control response that was lost under treatment. On to `CN1CCOCCOc2cc(Nc3ncc(F)c(-c4ccc(C(=O)NCC#N)cc4)n3)ccc2OCC1` [Example 16, N-(cyanomethyl)-4-(5-fluoro-2-((7-methyl-2,3,6,7,8,9-hexahydro-5H-benzo[b][1,4,7]trioxa[10]azacyclododecan-13-yl)amino)pyrimidin-4-yl)benzamide], for which the IC50 in assay [1] is below 100 nM; in assay [2] (first HCC1187 column (c2)) it was 1000 to 5000 nM; in assay [2] (second HCC1187 column (c3)), 100 to 1000 nM; in assay [3] it was 100 to 1000 nM; in assay [4], 100 to 1000 nM; in assay [5] (kinase activity assay, Table 3), below 50 nM. The inhibition at 0.01 µM in assay [5] (at 10 nM, read-out: inhibition rate CDK9) lay within 40 to 79%. In addition, in assay [5] (at 100 nM, read-out: inhibition rate CDK9), the inhibition at 0.1 µM is above 80%.
As usually defined, the EC50 is the concentration at which the effect is half-maximal. A lower EC50 goes with a more potent agent. With `CCS(=O)(=O)N1CC(CC#N)(n2cc(-c3nc(Nc4ccc5c(c4)OCCN(C)CCO5)nc4[nH]ccc34)cn2)C1` [Example 28, 2-(1-(ethylsulfonyl)-3-(4-(2-((4-methyl-3,4,5,6-tetrahydro-2H-benzo[b][1,4,7]dioxazolin-9-yl)amino)-7H-pyrrolo[2,3-d]pytimidin-4-yl)-1H-pyrazol-1-yl)azetidin-3-yl) acetonitrile], the EC50 in assay [6] was below 500 nM.
